Here are results for 2 molecules from BindingDB's records for doi:10.1016/j.ejmech.2016.09.095 (Orleans University, 2017).

Some results are limits rather than exact numbers.

The IC50 is the point on the concentration scale where inhibition reaches its midpoint. Low readings indicate greater potency, high ones weaker potency.

The target in test [1] is Alpha-N-acetylglucosaminidase (Homo sapiens) (UniProt P54802). In words: Inhibition of alpha-hexosaminidase in human PBMC using 4-methylumbelliferyl 2-acetamido-2-deoxy-alpha-D-glucopyranoside as substrate at pH 4.3 after 17 hrs by fluorescence assay.
Test [2] has the same target. In words: Inhibition of alpha-hexosaminidase (unknown origin).

Chain of Alpha-N-acetylglucosaminidase (Homo sapiens) (P54802 whole entry, looked up): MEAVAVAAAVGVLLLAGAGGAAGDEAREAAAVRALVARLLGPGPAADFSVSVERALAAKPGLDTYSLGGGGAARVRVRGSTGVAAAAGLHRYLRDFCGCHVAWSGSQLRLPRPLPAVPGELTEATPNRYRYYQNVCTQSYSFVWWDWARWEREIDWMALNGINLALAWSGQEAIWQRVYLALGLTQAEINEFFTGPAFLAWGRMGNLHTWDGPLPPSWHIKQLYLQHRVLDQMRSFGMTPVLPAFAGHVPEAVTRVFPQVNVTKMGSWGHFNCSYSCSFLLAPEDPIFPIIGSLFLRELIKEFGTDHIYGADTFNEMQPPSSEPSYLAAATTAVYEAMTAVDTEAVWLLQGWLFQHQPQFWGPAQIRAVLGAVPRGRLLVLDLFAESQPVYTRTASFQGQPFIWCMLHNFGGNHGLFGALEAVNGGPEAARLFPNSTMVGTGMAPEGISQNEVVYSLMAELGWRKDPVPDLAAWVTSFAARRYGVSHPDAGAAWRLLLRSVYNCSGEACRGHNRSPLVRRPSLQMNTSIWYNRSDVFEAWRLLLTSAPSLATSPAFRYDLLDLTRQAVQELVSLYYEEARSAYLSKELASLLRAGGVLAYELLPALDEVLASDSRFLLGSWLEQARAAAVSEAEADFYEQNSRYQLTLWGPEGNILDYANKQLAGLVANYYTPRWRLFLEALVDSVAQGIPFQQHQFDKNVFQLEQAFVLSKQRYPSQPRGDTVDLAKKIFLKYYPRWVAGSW

Consider `CCCCC[C@H]1NC[C@@H](O)[C@@H](O)[C@H]1CO`, for which the 50% inhibitory concentration (IC50) in test [1] was over 160000 nM.

The molecule `CC(=O)N[C@@H]1[C@@H](O)[C@H](O)[C@@H](CO)N[C@@H]1COCCCCc1ccccc1` had an IC50 in test [2] of 100 nM.
